Results from BindingDB's records for doi:10.1021/jm991049m (University of Camerino, 1999).

Legend:
[1] = Predicted affinity for imidazoline receptor I2 by three field CoMFA model
[2] = as above; remark: listed apart in the source
[3] = as above; remark: listed apart in the source

SMILES	Ki [3] [nM]	also measured
c1ccc([C@@H]2C[C@H]2C2=NCCN2)cc1		Ki [1]: 23 nM
c1ccc([C@H]2C[C@@H]2C2=NCCN2)cc1		Ki [2]: 251 nM
c1ccc([C@@H]2C[C@@H]2C2=NCCN2)cc1	331	
c1ccc([C@H]2C[C@H]2C2=NCCN2)cc1	724	
